Test results reported in patent US20150072968A1, “Treating Infections with Ceftolozane/Tazobactam in Subjects Having Impaired Renal Function” (Calixa Therapeutics, Inc., priority 2013, published 2015).
Like-named read-outs stand apart in the source and are kept apart here.

Tests used:
[1] = Population pharmacokinetic analysis of 10 clinical studies (Example 7); format: in vivo, human
From the text: Base model development. […] Intrinsic covariates analyzed included body weight, age, gender, ethnicity, and baseline calculated CrCL). The CrCL was estimated using the Cockcroft-Gault formula: […] […] Final population PK model: evaluation and performance. […] Smaller shrinkage ≦0.2 indicates good individual estimates.

[2] = cited from earlier work
[3] = Phase I PK studies in subjects with varying degrees of renal function (Example 11); format: in vivo, human
From the text: Male and female subjects, aged 18 to 79 years, with varying degrees of renal function were enrolled in two, prospective, open-label, phase I studies of intravenous ceftolozane/tazobactam. A total of 36 subjects were enrolled into cohorts based on degree of renal function: normal (n=11), mild impairment (n=6), moderate impairment (n=7), severe impairment (n=6), and ESRD on HD (n=6). To ensure subjects with ESRD were receiving effective HD, a target adequacy of HD calculated from the pre- and post-blood urea nitrogen ratios (Kt/V) of at least 1.2 for a minimum of 3 months prior to enrollment was required. Renal impairment groups were classified according to the 2010 U.S.

[4] = system: P. aeruginosa; conditions: neutropenic murine-thigh infection model; cited from earlier work
[5] = Phase 1 single dose PK of 750 mg ceftolozane/tazobactam in severe renal impairment and ESRD on hemodialysis (Example 8); format: in vivo, human; conditions: for AUC(0-t) / Cmax / half-life / Tmax / AUC(0-inf) / clearance / Vd: both sexes, human, plasma; for Cmax: read-out: Cmax, Mean (CV %); for half-life: read-out: t1/2, Mean (CV %) (converted); for Tmax: read-out: tmax, Median (minimum, maximum); for AUC(0-inf): read-out: AUC∞, Mean (CV %); for clearance: read-out: CL, Mean (CV %) (converted); for Vd: read-out: Vss, Mean (CV %)
Method: This was a Phase 1, multicenter, prospective, open-label study of 750 mg ceftolozane/tazobactam (as CXA-201) administered IV in male and female adult subjects with severe renal impairment (estimated CLCR<30 mL/min) and subjects with end-stage renal disease (ESRD) on hemodialysis (HD). The primary objective of the study was to determine the PK profile of ceftolozane/tazobactam in subjects with severe renal impairment and subjects with ESRD on HD and to determine the effect of HD on the clearance of ceftolozane/tazobactam.
Subjects with severe renal impairment received a single IV 1-hour infusion of 750 mg ceftolozane/tazobactam on Day 1. […] Subjects in this cohort received an IV dose of 750 mg ceftolozane/tazobactam as a 1 hour infusion immediately after their first HD session on Day 1 (postdialysis, approximately 72 hours prior to the next HD session) and a second dose of ceftolozane/tazobactam approximately 2 hours before their second HD session on Day 4 of the study. Infusion of ceftolozane/tazobactam was completed approximately 1 hour before the start of HD.
Subjects in both cohorts had urine (if not anuric) and plasma samples collected for determination of levels of ceftolozane, tazobactam and the M1 metabolite of tazobactam; subjects in the ESRD on HD cohort also had dialysate fluid samples collected for PK assessment. Plasma, urine, and dialysate levels of ceftolozane, tazobactam, and its metabolite M1 collected over a prespecified interval were determined by LC/MS/MS assay.
All subjects underwent hemodialysis for 3 to 4 hours using a high-flux membrane (either 1.4, 1.8, or 1.9 m^2) on Days 1, 4, and 6 as scheduled. Average blood flow rate was 264 to 600 mL/min and average dialysis flow rate was either 600 or 800 mL/min for all subjects with ESRD.

[6] = clinical; conditions: human, in vivo
From the text: CXA-201 plasma concentrations from 6 subjects with ESRD following a single dose without HD and a second dose with HD were used to develop a pPK model (Phoenix NLME, Pharsight).

[7] = Pharmacokinetics of ceftolozane/tazobactam in healthy volunteers; format: in vivo, human
[8] = cited from earlier work; remark: listed apart in the source
[9] = moderate renal impairment, single 1,000 mg/500 mg dose
[10] = severe renal impairment, single 500 mg/250 mg dose
[11] = intravenous, 750 mg, ESRD on HD, second infusion Day 4, start of infusion to end of dialysis
[12] = iv, 750 mg, ESRD on HD, Day 1 IV infusion of 750 mg (non-hemodialysis phase)
[13] = iv, 750 mg, ESRD on HD, second IV infusion of 750 mg on Day 4 (during HD)
[14] = iv, 750 mg, severe renal impairment, single IV 1-hour infusion of 750 mg ceftolozane/tazobactam

Vc ([1]; cIAI): 18.2 L | Vc ([1]; cUTI, at 74 kg body weight): 13.8 L | between-subject variability (BSV) of CL ([1]; final population PK model): 33.0% | clearance ([1]; human, plasma, intravenous, patients with cIAI, at CrCL=109 mL/min, read-out: CL (converted)): 104 mL/min | CL higher than that in healthy subjects ([1]; patients with cUTI and cIAI): about 20% | CL ([1]; patients with cUTI, at CrCL=109 mL/min): 6.18 L/h | extraction ratio ([3]; 1 h after the start of HD): 42% | extraction ratio ([3]; 2 h after the start of HD): 48% | median Cmax in plasma higher compared with normal renal function, dose normalized ([3]; ESRD during non-HD): 1.2 fold | average extraction ratio during HD ([3]; ESRD on HD): 46% | median RDHD (percent reduction in plasma concentration during HD) ([3]; ESRD on HD): 92% | reduction in overall exposure based on the AUC0-∞ on and off HD ([3]; ESRD on HD): approximately 66% | plasma concentration rebound peak following HD, of the original Cmax ([3]; ESRD, period following HD): approximately 17% | extraction ratio ([3]; at end of HD): 47% | clearance ([3]; both sexes, human, dialysate and plasma, intravenous, ESRD on HD, read-out: median dialysis clearance (CLD) (converted)): 95.8 mL/min | half-life ([3]; both sexes, human, plasma, intravenous, ESRD on HD, read-out: t1/2 during the HD period (converted)): 67.8 min | increase of median AUC0-∞ compared with normal renal function [3, 9]: 2.5 fold | increase of median Cmax compared with normal renal function [3, 9]: 1.2 fold | increase of median AUC0-∞ compared with dose-normalized exposure in normal renal function [3, 10]: 4.4 fold | increase of median Cmax compared with dose-normalized exposure in normal renal function [3, 10]: 1.3 fold | AUC(0-t) ([5]; intravenous, 750 mg, ESRD on HD, second infusion Day 4, approximately 6 hours from start of infusion to end of dialysis, read-out: AUClast, Mean (CV %)): 87.5 µg·h/mL | Cmax [5, 11]: 40900 ng/mL | half-life [5, 11]: 75 min | Tmax [5, 11]: 1 h | AUC(0-t) ([5]; intravenous, 750 mg, subjects with ESRD, read-out: Exposure (AUC48h) After HD (Day 1), Median (Range)): 903 µg·h/mL | AUC(0-t) ([5]; intravenous, 750 mg, subjects with ESRD, read-out: Exposure (AUC48h) During HD (Day 3), Median (Range)): 298 µg·h/mL | AUC(0-inf) [5, 12]: 1680 µg·h/mL | clearance [5, 12]: 6.67 mL/min | Cmax [5, 12]: 44500 ng/mL | Vd [5, 12]: 19.2 L | half-life [5, 12]: 2390 min | AUC(0-t) ([5]; iv, 750 mg, ESRD on HD, Day 1 IV infusion of 750 mg (non-hemodialysis phase), through 48 hours, read-out: AUClast, Mean (CV %)): 910 µg·h/mL | Cmax [5, 13]: 40900 ng/mL | half-life [5, 13]: 2610 min | AUC(0-t) ([5]; iv, 750 mg, ESRD on HD, second IV infusion of 750 mg on Day 4 (during HD), through 44 hours, read-out: AUClast, Mean (CV %)): 304 µg·h/mL | AUC(0-t) ([5]; iv, 750 mg, severe renal impairment, single IV 1-hour infusion of 750 mg ceftolozane/tazobactam, through 48 hours, read-out: AUClast, Mean (CV %)): 511 µg·h/mL | Cmax [5, 14]: 49900 ng/mL | AUC(0-inf) [5, 14]: 537 µg·h/mL | clearance [5, 14]: 16.7 mL/min | Vd [5, 14]: 13.8 L | half-life [5, 14]: 666 min | Tmax ([5]; ESRD on HD, second IV infusion of 750 mg on Day 4 (during HD)): 1 h | AUC48h Ratio (Day 3:1), Median (Range) ([5]; subjects with ESRD, during HD vs after HD): 0.34 (0.26 − 0.48) | Percent Removed, Median (Range) ([5]; subjects with ESRD, hemodialysis): 66 (52 − 74) Percent | Vd [6]: 6 L | clearance [6]: 5.67 mL/min | increase of CL by HD [6]: 60 fold | increase of Vc by HD [6]: 4.7 fold | clearance ([7]; human, plasma, intravenous, after a single dose of CXA-201, read-out: plasma CL): 68.3 to 112 mL/min | CL renal ([7]; human, urine and plasma, intravenous, after a single dose of CXA-201, read-out: renal clearance): 56.8 to 112 mL/min | excreted in the urine as unchanged parent drug ([7]; single 1.5 g intravenous dose of CXA-201, healthy male adults): greater than 95%
SMILES: Cn1c(N)c(NC(=O)NCCN)c[n+]1CC1=C(C(=O)[O-])N2C(=O)[C@@H](NC(=O)/C(=N\OC(C)(C)C(=O)O)c3nsc(N)n3)[C@H]2SC1 [Ceftolozane, (6R,7R)-3-[(5-amino-4-{[(2-aminoethyl)carbamoyl]amino}-1-methyl-1H-pyrazol-2-ium-2-yl)methyl]-7-({(2Z)-2-(5-amino-1,2,4-thiadiazol-3-yl)-2-[(1-carboxy-1-methylethoxy)imino]acetyl}amino)-8-oxo-5-thia-1-azabicyclo[4.2.0]oct-2-ene-2-carboxylate]
protein binding [2]: approximately 20% | free-drug (f) % T>MIC associated with a 1-log10 CFU reduction from baseline [4]: 32.2 | free-drug (f) % T>MIC associated with net bacterial stasis [4]: 24.8 | terminal elimination half-life (t½β) ([8]; healthy volunteers): approximately 2.5 hours | Terminal elimination half-lives (t1/2) ([8]; patients with normal renal function): approximately 2.5 h
